Assay results taken from patent publication US20110098180A1, “Herbicide-Resistant Plants, And Polynucleotides And Methods For Providing Same” (United States Department of Agriculture, priority 2002, published 2011).

Key:
Assay in all cases: Cross-resistance testing, His-tagged column-purified PDS (Table 2A)
[1] = tested on: hydrilla PDS Arg^304 → Threonine, His-tagged; type: biochemical, Hydrilla verticillata; settings: Threonine at 304 relative to Arginine; Table 2A
Source text: (§1) In further cross-resistance testing similar to that described above, an alternative production and purification protocol was used in the preparation of the mutant PDS proteins, and the activity of the proteins was again tested using the same testing protocol. The alternative approach utilized His-tagging and column purification of the mutant PDS protins. The results are shown in. Table 2A below.
(§2) The plasmid pHy4ATG5 was made by cloning the Phytoene Desaturase (pds) gene from Hydrilla verticillata, including 323 by upstream of the beginning of the putative mature protein, into the vector TOPO4 (Invitrogen, Carlsbad, Calif.): The 1-323 by region contained three potential start codons (ATG)(positions 1, 114 and 225 bp) in frame with pds. In order to express pds in bacteria, deletion clones were made for each of the three potential start codons with and without ATG. Only the results for possible origins of translation 1 and 225 by (named ORF and 3ORF) are reported here. pds was PCR amplified and subcloned into TOPO4 using pHy4ATG5 as template and the reverse primer RPDS—1849 (5′[…] 3′). The forward primers used were ORF (5′ […] 3′), ORF-ATG (5′ […] 3′), 3_ORF (5′[…] 3′) and 3_ORF-ATG (5′ […] 3′). The resulting plasmids were named pORF, pORF-ATG (minus ATG codon), p3ORF and p3ORF-ATG. The pds-containing EcoRI-fragments of these plasmids were subcloned into the EcoRI site of pRSETb vector (Invitrogen) for Histidine tagging and bacterial expression. The resulting constructs were pHy4SET, pHy4SET-ATG (minus ATG), p3ORFSET and p3ORFSET-ATG.
(§3) Plasmid p3ORF-ATG was later mutagenized at the amino acid 304 of pds to replace the amino acid Arginine (Arg) by Histidine (His), Threonine (Thr), Serine (Ser), or Cysteine (Cys), using the QuickChange™ Site-Directed Mutagenesis Kit of Stratagene (La Jolla, Calif.). Primers used to replace Arg by His were Hyd-His-For (5′[…] 3′) and Hyd-His-Rev (5′ […] 3′); to replace Arg by Thr we used primers Hyd-Thr-For (5′[…] 3′) and Hyd-Thr-Rev (5′[…] 3′); to replace Arg by Ser we used Hyd-Ser-For (5′[…] 3′) and Hyd-Ser-Rev (5′[…] 3′); and Arg was replaced by Cys using Hyd-Cys-For (5′[…] 3′) and Hyd-Cys-Rev (5′[…] 3′). Resulting plasmids were named: p3ORFHisSet-ATG, p3ORFThrSet-ATG, p3ORFSerSet-ATG and p3ORFCysSet-ATG.
(§4) All pRSET derived constructs were transformed into BL21(DE3)pLysS cells (Invitrogen), induced with IPTG for protein expression, and the His tag overproduced proteins analyzed by Western blot using Anti-HisG antibody (Invitrogen, cat. #R940-25).
(§5) When working with His-tagged PDS proteins expressed as described in Example 4, the purified protein used for testing was prepared as follows. BL21(DE3)pLysS cells were grown overnight in 500 ml Luria Broth (LB) supplemented with carbenicillin (100 mg/l) and cloramphenicol (60 mg/l) at 37° C., and induced with 0.3 mM isopropylthio-β-D-galactoside (IPTG) for 3 hrs. Cells were lysed using a French press (Spectronics Instrument) at 20,000 psi and overexpressed PDS was purified on a nickel activated Hitrap Chelating HP column according to the manufacturers instructions (Amersham Bioscience).
(§6) Generally, PDS protein fractions prepared as described above (Non-His-tagged and His-tagged) were mixed with a soluble fraction from phytoene-producing E. coli cells. For the phytoene producing cells, a plasmid construct containing the genes GGPP synthase and phytoene synthase from Erwinia uredovora, transformed into the appropriate E. coli strain, was used (see, Misawa et al., J. of Bacteriology 177:6575, 1995). This E. coli strain was separately cultured and lysed, and its soluble components collected (“the EB extract”) in a fashion similar to that described above for the PDS-producing cells.
(§7) His-tagged, purified proteins prepared as described above were transferred to the assay buffer on a PD10 column (Amersham Bioscience) and the concentration was adjusted to 100 μg/mL. […]

[2] = target: hydrilla PDS Arg^304 → Threonine, His-tagged (Hydrilla verticillata, UniProt Q66PY0, R304T); type: biochemical; settings: Threonine at 304; His-tagged, column-purified PDS; read-out: I50
Source text: as §1, §2, §3, §4, §5, §6, §7

[3] = target: hydrilla PDS Arg^304 → Histidine, His-tagged (Hydrilla verticillata, UniProt Q66PY0, R304H); type: biochemical; settings: Histidine at 304; His-tagged, column-purified PDS; read-out: I50
Source text: as §1, §2, §3, §4, §5, §6, §7

[4] = target: hydrilla PDS Arg^304 → Cysteine, His-tagged (Hydrilla verticillata, UniProt Q66PY0, R304C); type: biochemical; settings: Cysteine at 304; His-tagged, column-purified PDS; read-out: I50
Source text: as §1, §2, §3, §4, §5, §6, §7

[5] = tested on: hydrilla PDS Arg^304 → Cysteine, His-tagged; type: biochemical, Hydrilla verticillata; settings: Cysteine at 304 relative to Arginine; Table 2A
Source text: as §1, §2, §3, §4, §5, §6, §7

[6] = tested on: hydrilla PDS Arg^304 → Serine, His-tagged; type: biochemical, Hydrilla verticillata; settings: Serine at 304 relative to Arginine; Table 2A
Source text: as §1, §2, §3, §4, §5, §6, §7

[7] = target: hydrilla PDS Arg^304 → Serine, His-tagged (Hydrilla verticillata, UniProt Q66PY0, R304S); type: biochemical; settings: Serine at 304; His-tagged, column-purified PDS; read-out: I50
Source text: as §1, §2, §3, §4, §5, §6, §7

[8] = tested on: hydrilla PDS Arg^304 → Histidine, His-tagged; type: biochemical, Hydrilla verticillata; settings: Histidine at 304 relative to Arginine; Table 2A
Source text: as §1, §2, §3, §4, §5, §6, §7

Sequence of hydrilla PDS Arg^304 → Cysteine, His-tagged (Hydrilla verticillata, UniProt Q66PY0, R304C) (Q66PY0 77-580 R304C): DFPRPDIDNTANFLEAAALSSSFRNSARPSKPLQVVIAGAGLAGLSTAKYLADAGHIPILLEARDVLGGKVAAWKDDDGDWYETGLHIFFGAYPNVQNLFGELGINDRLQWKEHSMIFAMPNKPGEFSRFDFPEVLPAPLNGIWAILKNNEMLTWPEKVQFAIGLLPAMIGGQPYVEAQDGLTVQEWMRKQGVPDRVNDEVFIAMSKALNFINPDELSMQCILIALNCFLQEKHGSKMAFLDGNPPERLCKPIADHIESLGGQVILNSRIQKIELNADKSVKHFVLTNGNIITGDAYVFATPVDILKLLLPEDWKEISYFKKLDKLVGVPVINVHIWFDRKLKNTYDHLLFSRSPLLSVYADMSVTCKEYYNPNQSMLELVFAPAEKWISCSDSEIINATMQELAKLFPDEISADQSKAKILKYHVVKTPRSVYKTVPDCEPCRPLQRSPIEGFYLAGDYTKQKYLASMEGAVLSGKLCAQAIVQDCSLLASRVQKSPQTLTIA
Sequence of hydrilla PDS Arg^304 → Serine, His-tagged (Hydrilla verticillata, UniProt Q66PY0, R304S) (Q66PY0 77-580 R304S): as the sequence (Q66PY0 77-580 R304C) above, with C228S counted along it
Sequence of hydrilla PDS Arg^304 → Threonine, His-tagged (Hydrilla verticillata, UniProt Q66PY0, R304T) (Q66PY0 77-580 R304T): as the sequence (Q66PY0 77-580 R304C) above, with C228T counted along it
Sequence of hydrilla PDS Arg^304 → Histidine, His-tagged (Hydrilla verticillata, UniProt Q66PY0, R304H) (Q66PY0 77-580 R304H): as the sequence (Q66PY0 77-580 R304C) above, with C228H counted along it

| Compound | R/S [1] | IC50 [2] | IC50 [3] | IC50 [4] | R/S [5] | R/S [6] | IC50 [7] | R/S [8] |
| --- | --- | --- | --- | --- | --- | --- | --- | --- |
| O=C1C(Cl)C(CCl)CN1c1cccc(C(F)(F)F)c1 (stereo not shown) [Fluorochloridone] | 1.6 | 210 µM | 364 µM | 283 µM | 2.2 | 4.0 | 518 µM | 2.8 |
| CNc1cnn(-c2cccc(C(F)(F)F)c2)c(=O)c1Cl [Norflurazon] | 30.0 | 1510 µM | 486 µM | 1870 µM | 37.0 | 82.0 | 4100 µM | 9.7 |
| CNC1=C(c2cccc(C(F)(F)F)c2)C(=O)C(c2ccccc2)O1 (stereo not shown) [Flurtamone] | 5.9 | 1780 µM | 630 µM | 1150 µM | 3.8 | 2.4 | 707 µM | 2.1 |
| CCC(Oc1ccc(F)c(C(F)(F)F)c1)C(=O)NCc1ccccc1 (stereo not shown) [Beflubutamid] | 1.5 | 106 µM | 126 µM | 232 µM | 3.2 | 6.5 | 465 µM | 1.75 |
| O=C(Nc1ccc(F)cc1)c1cccc(Oc2cccc(C(F)(F)F)c2)n1 [Piconilafen, Picolinafen] | 0.2 | 60 µM | 112 µM | 96 µM | 0.3 | 0.2 | 62 µM | 0.3 |
| Fluridone | 7.8 |  |  |  | 2.6 | 2.0 |  | 4.8 |
| O=C(Nc1ccc(F)cc1F)c1cccnc1Oc1cccc(C(F)(F)F)c1 [Diflufenican] | 1.0 | 104 µM | 103 µM | 241 µM | 2.4 | 2.2 | 223 µM | 1.0 |
